Our source for the Residual activity values is PMC9030254, “Target Hopping from Protein Kinases to PXR: Identification of Small-Molecule Protein Kinase Inhibitors as Selective Modulators of Pregnane X Receptor from TüKIC Library” (Cells, 2022).

Holding throughout (assay): Kinase profiling
Type in all cases: biochemical

The target in one test is T1, DYRK1B (Homo sapiens, UniProt Q9Y463).
T1 construct: purchased ProQinase (Freiburg, Germany)
The method, then: (§1) The analysis was performed by ProQinase (Freiburg, Germany).

The target of a further test is T2, EPHA5 (Homo sapiens, UniProt P54756).
T2 construct: purchased ProQinase (Freiburg, Germany)
The method, then: as §1

The target in a further test is T3, IKKbeta (Homo sapiens, UniProt O14920).
T3 construct: purchased ProQinase (Freiburg, Germany)
T3 sequence (O14920 1-756): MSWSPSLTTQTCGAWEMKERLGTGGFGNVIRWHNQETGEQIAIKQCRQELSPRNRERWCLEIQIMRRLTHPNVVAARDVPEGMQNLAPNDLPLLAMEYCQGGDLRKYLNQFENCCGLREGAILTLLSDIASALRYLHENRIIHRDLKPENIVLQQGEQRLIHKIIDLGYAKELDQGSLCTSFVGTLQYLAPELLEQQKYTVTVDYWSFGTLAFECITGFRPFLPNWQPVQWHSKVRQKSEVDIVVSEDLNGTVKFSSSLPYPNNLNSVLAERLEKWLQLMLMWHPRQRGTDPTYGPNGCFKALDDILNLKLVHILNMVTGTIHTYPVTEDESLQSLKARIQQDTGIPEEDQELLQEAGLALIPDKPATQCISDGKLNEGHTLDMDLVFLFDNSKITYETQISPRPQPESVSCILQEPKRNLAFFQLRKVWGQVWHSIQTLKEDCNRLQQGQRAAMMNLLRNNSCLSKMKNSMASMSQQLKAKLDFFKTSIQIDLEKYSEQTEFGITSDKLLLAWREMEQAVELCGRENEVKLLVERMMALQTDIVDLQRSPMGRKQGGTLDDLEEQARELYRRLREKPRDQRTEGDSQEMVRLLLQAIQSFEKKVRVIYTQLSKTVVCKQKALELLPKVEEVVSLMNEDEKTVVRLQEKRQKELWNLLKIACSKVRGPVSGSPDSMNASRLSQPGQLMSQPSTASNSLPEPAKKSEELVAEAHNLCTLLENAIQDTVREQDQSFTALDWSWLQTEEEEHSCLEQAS
The method, then:
as §1

The target in another test is T4, NEK11 (Homo sapiens, UniProt Q8NG66).
T4 construct: purchased ProQinase (Freiburg, Germany)
T4 sequence (Q8NG66 1-645): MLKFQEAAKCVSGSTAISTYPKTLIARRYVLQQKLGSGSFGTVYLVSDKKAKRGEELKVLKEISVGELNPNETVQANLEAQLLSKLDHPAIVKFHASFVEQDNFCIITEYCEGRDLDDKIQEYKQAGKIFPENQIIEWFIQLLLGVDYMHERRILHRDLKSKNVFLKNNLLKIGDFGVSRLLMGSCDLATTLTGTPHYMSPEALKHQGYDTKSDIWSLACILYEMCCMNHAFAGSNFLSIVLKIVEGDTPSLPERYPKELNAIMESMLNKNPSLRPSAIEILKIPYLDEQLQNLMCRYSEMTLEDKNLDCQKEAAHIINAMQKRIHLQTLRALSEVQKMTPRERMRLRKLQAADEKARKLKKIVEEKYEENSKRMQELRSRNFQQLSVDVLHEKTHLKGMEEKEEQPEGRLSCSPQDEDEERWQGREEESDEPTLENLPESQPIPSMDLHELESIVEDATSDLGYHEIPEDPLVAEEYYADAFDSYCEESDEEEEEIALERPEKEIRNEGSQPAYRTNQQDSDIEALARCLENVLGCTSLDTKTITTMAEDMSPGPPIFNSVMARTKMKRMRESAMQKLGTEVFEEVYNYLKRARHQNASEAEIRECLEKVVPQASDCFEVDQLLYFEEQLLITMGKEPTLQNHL
As to the method: as §1

The target of a further test is T5, ROS (Homo sapiens, UniProt P08922).
T5 construct: purchased ProQinase (Freiburg, Germany)
T5 sequence (P08922 28-2347): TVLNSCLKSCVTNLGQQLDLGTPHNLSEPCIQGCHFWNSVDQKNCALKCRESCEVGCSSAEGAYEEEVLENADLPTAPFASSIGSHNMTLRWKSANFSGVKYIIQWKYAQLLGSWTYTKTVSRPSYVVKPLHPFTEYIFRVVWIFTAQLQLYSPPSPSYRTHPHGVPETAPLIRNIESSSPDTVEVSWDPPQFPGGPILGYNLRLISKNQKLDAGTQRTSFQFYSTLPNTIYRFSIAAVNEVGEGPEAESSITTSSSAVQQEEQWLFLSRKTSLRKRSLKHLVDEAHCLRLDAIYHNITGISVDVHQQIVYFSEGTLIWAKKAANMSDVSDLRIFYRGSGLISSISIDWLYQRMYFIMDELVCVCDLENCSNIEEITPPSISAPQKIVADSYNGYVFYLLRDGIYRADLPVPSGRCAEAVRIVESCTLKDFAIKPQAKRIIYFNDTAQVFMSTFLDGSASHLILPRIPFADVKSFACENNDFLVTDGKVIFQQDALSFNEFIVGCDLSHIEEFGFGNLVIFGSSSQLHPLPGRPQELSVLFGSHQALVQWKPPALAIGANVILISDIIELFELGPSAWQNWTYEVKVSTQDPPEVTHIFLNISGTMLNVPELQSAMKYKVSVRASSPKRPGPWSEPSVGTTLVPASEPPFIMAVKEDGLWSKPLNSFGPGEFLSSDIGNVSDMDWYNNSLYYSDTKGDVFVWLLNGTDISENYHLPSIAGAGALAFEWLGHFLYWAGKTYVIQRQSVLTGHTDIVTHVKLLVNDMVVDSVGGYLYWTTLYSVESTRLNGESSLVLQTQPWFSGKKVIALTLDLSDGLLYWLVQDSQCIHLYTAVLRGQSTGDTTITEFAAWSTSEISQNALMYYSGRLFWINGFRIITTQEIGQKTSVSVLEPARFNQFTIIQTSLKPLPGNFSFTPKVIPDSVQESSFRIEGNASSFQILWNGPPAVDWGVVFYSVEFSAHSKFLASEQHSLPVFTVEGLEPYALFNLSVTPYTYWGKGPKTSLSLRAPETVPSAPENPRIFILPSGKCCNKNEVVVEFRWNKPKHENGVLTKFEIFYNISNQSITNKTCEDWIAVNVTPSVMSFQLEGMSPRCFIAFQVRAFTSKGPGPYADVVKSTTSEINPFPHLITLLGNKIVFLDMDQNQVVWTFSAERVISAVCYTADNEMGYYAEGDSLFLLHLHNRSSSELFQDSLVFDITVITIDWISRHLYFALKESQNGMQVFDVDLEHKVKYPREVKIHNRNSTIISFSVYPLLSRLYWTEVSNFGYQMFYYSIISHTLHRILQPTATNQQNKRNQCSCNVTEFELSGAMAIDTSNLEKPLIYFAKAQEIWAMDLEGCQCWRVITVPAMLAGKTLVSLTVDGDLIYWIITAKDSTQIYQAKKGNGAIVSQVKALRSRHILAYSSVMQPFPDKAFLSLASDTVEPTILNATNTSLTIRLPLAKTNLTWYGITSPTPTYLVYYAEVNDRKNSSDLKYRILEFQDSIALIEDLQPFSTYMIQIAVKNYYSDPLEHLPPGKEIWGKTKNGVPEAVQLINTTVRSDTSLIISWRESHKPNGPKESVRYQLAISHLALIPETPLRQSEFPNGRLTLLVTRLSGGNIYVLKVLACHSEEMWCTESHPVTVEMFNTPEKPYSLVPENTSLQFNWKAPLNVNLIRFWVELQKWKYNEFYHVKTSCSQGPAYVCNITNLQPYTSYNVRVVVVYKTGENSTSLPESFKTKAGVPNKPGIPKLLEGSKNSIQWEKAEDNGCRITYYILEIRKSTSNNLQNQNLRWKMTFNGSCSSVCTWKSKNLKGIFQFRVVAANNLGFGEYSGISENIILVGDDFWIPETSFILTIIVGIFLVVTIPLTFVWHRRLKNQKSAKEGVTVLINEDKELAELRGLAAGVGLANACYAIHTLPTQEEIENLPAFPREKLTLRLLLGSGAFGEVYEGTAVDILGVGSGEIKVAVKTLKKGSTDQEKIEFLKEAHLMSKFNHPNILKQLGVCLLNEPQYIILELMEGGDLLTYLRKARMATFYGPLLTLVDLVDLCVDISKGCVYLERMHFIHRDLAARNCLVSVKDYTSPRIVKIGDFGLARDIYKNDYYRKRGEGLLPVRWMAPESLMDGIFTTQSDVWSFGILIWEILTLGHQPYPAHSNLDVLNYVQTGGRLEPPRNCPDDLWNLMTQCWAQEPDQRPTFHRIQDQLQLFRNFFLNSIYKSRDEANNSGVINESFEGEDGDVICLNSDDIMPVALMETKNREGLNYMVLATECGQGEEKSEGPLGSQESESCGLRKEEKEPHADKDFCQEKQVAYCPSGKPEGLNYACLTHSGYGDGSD
The method, then: as §1

In another test the target is T6, RPS6KA2 (Homo sapiens, UniProt Q15349).
T6 construct: purchased ProQinase (Freiburg, Germany)
T6 sequence (Q15349 whole entry): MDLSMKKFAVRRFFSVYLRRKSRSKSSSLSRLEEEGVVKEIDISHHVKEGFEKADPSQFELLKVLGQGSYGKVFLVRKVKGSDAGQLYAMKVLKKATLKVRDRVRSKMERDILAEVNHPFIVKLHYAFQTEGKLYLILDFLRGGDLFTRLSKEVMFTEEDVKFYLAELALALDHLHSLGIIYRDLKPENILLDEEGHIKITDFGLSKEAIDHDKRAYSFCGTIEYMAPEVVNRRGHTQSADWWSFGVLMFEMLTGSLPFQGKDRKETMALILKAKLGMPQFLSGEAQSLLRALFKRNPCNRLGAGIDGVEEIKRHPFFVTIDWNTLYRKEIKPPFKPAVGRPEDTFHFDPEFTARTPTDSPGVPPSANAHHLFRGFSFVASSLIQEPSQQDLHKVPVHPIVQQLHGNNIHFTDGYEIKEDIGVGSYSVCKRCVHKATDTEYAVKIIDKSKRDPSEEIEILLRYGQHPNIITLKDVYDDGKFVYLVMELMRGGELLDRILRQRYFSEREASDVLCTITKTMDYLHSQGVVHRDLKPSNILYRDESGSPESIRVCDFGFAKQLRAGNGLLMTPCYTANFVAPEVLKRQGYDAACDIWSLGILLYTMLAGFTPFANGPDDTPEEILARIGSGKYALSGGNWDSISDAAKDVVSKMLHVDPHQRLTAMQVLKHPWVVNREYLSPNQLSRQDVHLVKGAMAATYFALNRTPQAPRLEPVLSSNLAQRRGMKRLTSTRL
The method, then: as §1

In the next test the target is T7, TNK1 (Homo sapiens, UniProt Q13470).
T7 construct: purchased ProQinase (Freiburg, Germany)
T7 sequence (Q13470 1-666): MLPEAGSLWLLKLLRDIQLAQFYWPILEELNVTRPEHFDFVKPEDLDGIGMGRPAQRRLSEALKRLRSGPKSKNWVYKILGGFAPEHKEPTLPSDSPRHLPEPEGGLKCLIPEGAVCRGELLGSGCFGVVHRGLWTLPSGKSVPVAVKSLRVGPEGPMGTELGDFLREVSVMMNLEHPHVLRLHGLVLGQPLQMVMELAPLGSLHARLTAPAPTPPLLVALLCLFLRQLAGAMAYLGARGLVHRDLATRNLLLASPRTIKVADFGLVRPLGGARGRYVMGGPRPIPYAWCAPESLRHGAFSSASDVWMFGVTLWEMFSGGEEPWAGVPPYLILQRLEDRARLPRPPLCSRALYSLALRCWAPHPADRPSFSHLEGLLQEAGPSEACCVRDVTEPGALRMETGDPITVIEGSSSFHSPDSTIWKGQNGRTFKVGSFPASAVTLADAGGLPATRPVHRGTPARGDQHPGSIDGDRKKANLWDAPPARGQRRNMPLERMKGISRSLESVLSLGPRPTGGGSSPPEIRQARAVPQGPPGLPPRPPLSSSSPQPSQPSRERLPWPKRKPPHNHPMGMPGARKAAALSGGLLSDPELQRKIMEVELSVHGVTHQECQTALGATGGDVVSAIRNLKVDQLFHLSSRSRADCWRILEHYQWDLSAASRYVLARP
The method, then:
as §1

A further test has as its target T8, VEGFR3 (Homo sapiens, UniProt P35916).
T8 construct: purchased ProQinase (Freiburg, Germany)
The method, then:
as §1

Structures are written as SMILES.

T1 sequence (Q9Y463 whole entry): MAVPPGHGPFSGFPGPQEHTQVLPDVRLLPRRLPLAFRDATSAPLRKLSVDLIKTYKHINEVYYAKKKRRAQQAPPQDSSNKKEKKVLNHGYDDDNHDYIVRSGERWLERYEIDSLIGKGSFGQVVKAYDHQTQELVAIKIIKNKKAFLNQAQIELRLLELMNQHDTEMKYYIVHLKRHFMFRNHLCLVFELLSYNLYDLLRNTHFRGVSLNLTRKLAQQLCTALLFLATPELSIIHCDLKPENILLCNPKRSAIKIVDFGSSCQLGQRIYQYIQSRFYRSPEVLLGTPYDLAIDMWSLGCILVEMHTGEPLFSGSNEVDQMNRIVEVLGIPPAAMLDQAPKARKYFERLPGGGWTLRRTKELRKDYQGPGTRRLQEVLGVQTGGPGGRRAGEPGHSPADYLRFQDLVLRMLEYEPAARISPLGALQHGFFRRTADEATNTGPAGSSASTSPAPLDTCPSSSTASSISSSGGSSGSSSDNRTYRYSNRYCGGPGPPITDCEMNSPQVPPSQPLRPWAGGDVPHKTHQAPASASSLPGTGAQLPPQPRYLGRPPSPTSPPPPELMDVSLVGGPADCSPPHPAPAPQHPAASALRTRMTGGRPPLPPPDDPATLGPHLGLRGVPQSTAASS
T8 sequence (P35916 25-1363): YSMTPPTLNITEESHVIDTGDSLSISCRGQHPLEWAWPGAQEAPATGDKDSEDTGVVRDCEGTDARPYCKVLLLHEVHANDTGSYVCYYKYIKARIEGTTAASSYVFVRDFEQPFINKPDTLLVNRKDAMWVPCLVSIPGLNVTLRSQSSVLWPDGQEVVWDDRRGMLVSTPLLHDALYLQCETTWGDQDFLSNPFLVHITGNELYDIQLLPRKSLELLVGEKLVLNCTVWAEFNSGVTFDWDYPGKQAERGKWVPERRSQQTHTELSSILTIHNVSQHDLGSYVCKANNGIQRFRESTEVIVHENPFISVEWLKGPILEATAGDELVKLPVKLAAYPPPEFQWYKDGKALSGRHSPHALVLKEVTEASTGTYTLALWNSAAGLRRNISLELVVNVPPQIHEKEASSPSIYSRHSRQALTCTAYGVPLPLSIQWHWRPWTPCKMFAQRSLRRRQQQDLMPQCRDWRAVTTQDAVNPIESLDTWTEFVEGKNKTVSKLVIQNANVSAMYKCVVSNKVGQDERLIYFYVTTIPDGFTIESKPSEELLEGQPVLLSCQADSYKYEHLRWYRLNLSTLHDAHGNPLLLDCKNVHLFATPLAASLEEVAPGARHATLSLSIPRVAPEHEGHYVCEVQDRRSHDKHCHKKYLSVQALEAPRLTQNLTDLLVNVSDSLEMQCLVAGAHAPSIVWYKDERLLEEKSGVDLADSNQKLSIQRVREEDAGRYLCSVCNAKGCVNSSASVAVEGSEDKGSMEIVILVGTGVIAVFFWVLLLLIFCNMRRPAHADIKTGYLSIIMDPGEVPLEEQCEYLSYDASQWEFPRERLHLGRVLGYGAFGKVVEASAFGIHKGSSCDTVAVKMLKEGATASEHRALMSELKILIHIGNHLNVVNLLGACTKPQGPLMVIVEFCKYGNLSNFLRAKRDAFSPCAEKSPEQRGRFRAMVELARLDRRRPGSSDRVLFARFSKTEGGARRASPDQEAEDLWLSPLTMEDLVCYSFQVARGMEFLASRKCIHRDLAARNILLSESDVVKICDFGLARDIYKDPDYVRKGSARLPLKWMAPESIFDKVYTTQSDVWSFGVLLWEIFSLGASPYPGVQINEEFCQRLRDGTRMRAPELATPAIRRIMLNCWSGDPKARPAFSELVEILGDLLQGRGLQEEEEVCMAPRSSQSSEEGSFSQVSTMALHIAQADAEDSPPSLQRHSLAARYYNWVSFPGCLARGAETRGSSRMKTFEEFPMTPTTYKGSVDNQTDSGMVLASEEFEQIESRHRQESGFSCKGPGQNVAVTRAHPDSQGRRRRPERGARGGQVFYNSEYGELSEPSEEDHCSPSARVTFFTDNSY

`O=C(Cc1ccccc1)Nc1ccc(F)c(Nc2ccc3c(c2)CCCCC3=O)c1` [Compound 100]: the Residual activity on DYRK1B (1.0E-05 M) is on record as 117 % of control; on DYRK1B (1.0E-06 M), 103 % of control; on EPHA5 (1.0E-05 M), 67 % of control; at EPHA5 (1.0E-06 M), 96 % of control; on IKKbeta (1.0E-05 M), 99 % of control; at IKKbeta (1.0E-06 M), 110 % of control. The Residual activity at NEK11 (1.0E-05 M) is given as 110 % of control; at NEK11 (1.0E-06 M), 97 % of control; at ROS (1.0E-05 M), 91 % of control; on ROS (1.0E-06 M) it was 99 % of control; at RPS6KA2 (1.0E-05 M), 84 % of control; on RPS6KA2 (1.0E-06 M) it was 95 % of control. The Residual activity was 72 % of control at TNK1 (1.0E-05 M), 101 % of control at TNK1 (1.0E-06 M), 84 % of control on VEGFR3 (1.0E-05 M) and 108 % of control on VEGFR3 (1.0E-06 M).

With `O=C(Nc1ccc(F)c(Nc2ccc3c(c2)CCCCC3=O)c1)c1cccc(F)c1` [Compound 109], the Residual activity at DYRK1B (1.0E-05 M) is on record as 96 % of control; on DYRK1B (1.0E-06 M) it was 103 % of control; on EPHA5 (1.0E-05 M), 60 % of control; at EPHA5 (1.0E-06 M), 93 % of control; on IKKbeta (1.0E-05 M), 79 % of control; at IKKbeta (1.0E-06 M), 84 % of control. Moreover, the Residual activity at NEK11 (1.0E-05 M) is recorded as 104 % of control; on NEK11 (1.0E-06 M), 86 % of control; on ROS (1.0E-05 M), 85 % of control; at ROS (1.0E-06 M) it was 97 % of control; on RPS6KA2 (1.0E-05 M), 75 % of control; at RPS6KA2 (1.0E-06 M) it was 95 % of control. The Residual activity at TNK1 (1.0E-05 M) is 85 % of control; at TNK1 (1.0E-06 M), 89 % of control; on VEGFR3 (1.0E-05 M), 88 % of control; at VEGFR3 (1.0E-06 M), 105 % of control.
